Test results from patent publication US12077503B2, “Substituted cyclic amides and their use as herbicides” (FMC CORPORATION, priority 2015, dated 2024).

Tests used:
Type in all cases: in vivo
[1] = tested on: Kochia (Kochia scoparia); experiment: Test A preemergence; settings: for Plant response rating, Kochia: 125 g ai/ha, preemergence, 0 to 100 scale (0 no effect, 100 complete control); for Kochia plant response rating (0 to 100 scale, 0 is no effect, 100 is complete control): Preemergence, 500 g ai/ha, visual injury approx. 10 d
Procedure, shortened: (§1)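 Preemergence directed soil spray on seeded pots, or postemergence application to plants 2–10 cm, one- to two-leaf. Solvent mixture non-phytotoxic, with surfactant. Scored ~10 d later, visually, 0–100 vs untreated.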

[2] = tested on: barnyardgrass (Echinochloa crus-galli); experiment: Test A preemergence; settings: for Plant response rating, Barnyardgrass: 125 g ai/ha, preemergence, 0 to 100 scale (0 no effect, 100 complete control); for Barnyardgrass plant response rating (0 to 100 scale, 0 is no effect, 100 is complete control): Preemergence, 500 g ai/ha, visual injury approx. 10 d
Procedure, shortened: as §1

[3] = tested on: pigweed (Amaranthus retroflexus); experiment: Test A preemergence; settings: Preemergence; for Plant response rating, Pigweed: 125 g ai/ha, visual injury after approximately 10 d, 0 to 100 scale where 0 is no effect and 100 is complete control; for Pigweed plant response rating (0 to 100 scale, 0 is no effect, 100 is complete control): 500 g ai/ha, visual injury approx. 10 d
[4] = tested on: ragweed (common ragweed, Ambrosia elatior); experiment: Test A preemergence; settings: Preemergence; for Plant response rating, Ragweed: 125 g ai/ha, visual injury after approximately 10 d, 0 to 100 scale where 0 is no effect and 100 is complete control; for Ragweed plant response rating (0 to 100 scale, 0 is no effect, 100 is complete control): 500 g ai/ha, visual injury approx. 10 d
Procedure, shortened: as §1

[5] = tested on: giant foxtail (Setaria faberii); experiment: Test A preemergence; settings: for Plant response rating, Foxtail, Giant: 125 g ai/ha, preemergence, 0 to 100 scale (0 no effect, 100 complete control); for Foxtail, Giant plant response rating (0 to 100 scale, 0 is no effect, 100 is complete control): Preemergence, 500 g ai/ha, visual injury approx. 10 d
Procedure, shortened: as §1

[6] = tested on: ryegrass, Italian (Italian ryegrass, Lolium multiflorum); experiment: Test A preemergence; settings: Preemergence; for Plant response rating, Ryegrass, Italian: 125 g ai/ha, visual injury after approximately 10 d, 0 to 100 scale where 0 is no effect and 100 is complete control; for Ryegrass, Italian plant response rating (0 to 100 scale, 0 is no effect, 100 is complete control): 500 g ai/ha, visual injury approx. 10 d
Procedure, shortened: as §1

[7] = tested on: wheat (Triticum aestivum); experiment: Test A postemergence; settings: for Wheat plant response rating: 125 g ai/ha, postemergence, visual injury rating on 0 to 100 scale (0 no effect, 100 complete control), approx. 10 d; for Plant response rating, Wheat: Postemergence, 500 g ai/ha, 0 to 100 scale where 0 is no effect and 100 is complete control
Procedure, shortened: as §1

[8] = tested on: Kochia (Kochia scoparia); experiment: Test A postemergence; settings: for Kochia plant response rating: 125 g ai/ha, postemergence, visual injury rating on 0 to 100 scale (0 no effect, 100 complete control), approx. 10 d; for Plant response rating, Kochia: Postemergence, 500 g ai/ha, 0 to 100 scale where 0 is no effect and 100 is complete control
Procedure, shortened: as §1

[9] = tested on: barnyardgrass (Echinochloa crus-galli); experiment: Test A postemergence; settings: postemergence; for Barnyardgrass plant response rating: 125 g ai/ha, visual injury rating on 0 to 100 scale (0 no effect, 100 complete control), approx. 10 d; for Plant response rating, Barnyardgrass: 500 g ai/ha, 0 to 100 scale, 0 no effect, 100 complete control
Procedure, shortened: as §1

[10] = tested on: pigweed (Amaranthus retroflexus); experiment: Test A postemergence; settings: for Pigweed plant response rating: 125 g ai/ha, postemergence, visual injury rating on 0 to 100 scale (0 no effect, 100 complete control), approx. 10 d; for Plant response rating, Pigweed: Postemergence, 500 g ai/ha, 0 to 100 scale where 0 is no effect and 100 is complete control
Procedure, shortened: as §1

[11] = tested on: ragweed (common ragweed, Ambrosia elatior); experiment: Test A postemergence; settings: for Ragweed plant response rating: 125 g ai/ha, postemergence, visual injury rating on 0 to 100 scale (0 no effect, 100 complete control), approx. 10 d; for Plant response rating, Ragweed: Postemergence, 500 g ai/ha, 0 to 100 scale where 0 is no effect and 100 is complete control
Procedure, shortened: as §1

[12] = tested on: blackgrass (Alopecurus myosuroides); experiment: Test A postemergence; settings: postemergence; for Blackgrass plant response rating: 125 g ai/ha, visual injury rating on 0 to 100 scale (0 no effect, 100 complete control), approx. 10 d; for Plant response rating, Blackgrass: 500 g ai/ha, 0 to 100 scale, 0 no effect, 100 complete control
Procedure, shortened: as §1

[13] = tested on: Galium (catchweed bedstraw, Galium aparine); experiment: Test A postemergence; settings: for Galium plant response rating: 125 g ai/ha, postemergence, visual injury rating on 0 to 100 scale (0 no effect, 100 complete control), approx. 10 d; for Plant response rating, Galium: Postemergence, 500 g ai/ha, 0 to 100 scale where 0 is no effect and 100 is complete control
Procedure, shortened: as §1

[14] = tested on: giant foxtail (Setaria faberii); experiment: Test A postemergence; settings: for Foxtail, Giant plant response rating: 125 g ai/ha, postemergence, visual injury rating on 0 to 100 scale (0 no effect, 100 complete control), approx. 10 d; for Plant response rating, Foxtail, Giant: Postemergence, 500 g ai/ha, 0 to 100 scale where 0 is no effect and 100 is complete control
Procedure, shortened: as §1

[15] = tested on: ryegrass, Italian (Italian ryegrass, Lolium multiflorum); experiment: Test A postemergence; settings: for Ryegrass, Italian plant response rating: 125 g ai/ha, postemergence, visual injury rating on 0 to 100 scale (0 no effect, 100 complete control), approx. 10 d; for Plant response rating, Ryegrass, Italian: Postemergence, 500 g ai/ha, 0 to 100 scale where 0 is no effect and 100 is complete control
Procedure, shortened: as §1

[16] = tested on: corn (Zea mays); experiment: Test A postemergence; settings: postemergence; for Corn plant response rating: 125 g ai/ha, visual injury rating on 0 to 100 scale (0 no effect, 100 complete control), approx. 10 d; for Plant response rating, Corn: 500 g ai/ha, 0 to 100 scale, 0 no effect, 100 complete control
Procedure, shortened: as §1

[17] = tested on: sedge, umbrella (small-flower umbrella sedge, Cyperus difformis); experiment: Test B flooded paddy test; settings: Flood, 250 g ai/ha; 0 to 100 scale where 0 is no effect and 100 is complete control; 13 to 15 d
Procedure, shortened: (§2)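 Greenhouse paddy pots with 2-leaf stage plants received compound by direct addition to floodwater 3 cm deep, kept at that level. Scored visually at 13–15 d versus controls (0 no effect; 100 complete control).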

[18] = tested on: barnyardgrass (Echinochloa crus-galli); experiment: Test B flooded paddy test; settings: Flood, 250 g ai/ha; 0 to 100 scale where 0 is no effect and 100 is complete control; 13 to 15 d
Procedure, shortened: as §2

[19] = tested on: ducksalad (Heteranthera limosa); experiment: Test B flooded paddy test; settings: Flood, 250 g ai/ha; 0 to 100 scale where 0 is no effect and 100 is complete control; 13 to 15 d
Procedure, shortened: as §2

[20] = tested on: rice (Oryra sativa); experiment: Test B flooded paddy test; settings: Flood, 250 g ai/ha; 0 to 100 scale where 0 is no effect and 100 is complete control; 13 to 15 d
Procedure, shortened: as §2

CC(C)c1ccc(C2CNC(=O)C2C(=O)Nc2ccccc2F)cc1 (centres unmarked) [Compound 469]
Plant response rating, Kochia [1]: 0 | Kochia plant response rating (0 to 100 scale, 0 is no effect, 100 is complete control) [1]: 0 | Plant response rating, Barnyardgrass [2]: 80 | Barnyardgrass plant response rating (0 to 100 scale, 0 is no effect, 100 is complete control) [2]: 90 | Plant response rating, Pigweed [3]: 0 | Pigweed plant response rating (0 to 100 scale, 0 is no effect, 100 is complete control) [3]: 0 | Plant response rating, Ragweed [4]: 0 | Ragweed plant response rating (0 to 100 scale, 0 is no effect, 100 is complete control) [4]: 0 | Plant response rating, Foxtail, Giant [5]: 80 | Foxtail, Giant plant response rating (0 to 100 scale, 0 is no effect, 100 is complete control) [5]: 90 | Plant response rating, Ryegrass, Italian [6]: 0 | Ryegrass, Italian plant response rating (0 to 100 scale, 0 is no effect, 100 is complete control) [6]: 0 | Wheat plant response rating [7]: 0 | Plant response rating, Wheat [7]: 0 | Kochia plant response rating [8]: 0 | Plant response rating, Kochia [8]: 0 | Barnyardgrass plant response rating [9]: 70 | Plant response rating, Barnyardgrass [9]: 80 | Pigweed plant response rating [10]: 0 | Plant response rating, Pigweed [10]: 0 | Ragweed plant response rating [11]: 0 | Plant response rating, Ragweed [11]: 0 | Blackgrass plant response rating [12]: 0 | Plant response rating, Blackgrass [12]: 40 | Galium plant response rating [13]: 0 | Plant response rating, Galium [13]: 0 | Foxtail, Giant plant response rating [14]: 20 | Plant response rating, Foxtail, Giant [14]: 60 | Ryegrass, Italian plant response rating [15]: 0 | Plant response rating, Ryegrass, Italian [15]: 20 | Corn plant response rating [16]: 0 | Plant response rating, Corn [16]: 0 | Plant response rating, Sedge, Umbrella [17]: 0 | Plant response rating, Barnyardgrass [18]: 40 | Plant response rating, Ducksalad [19]: 70 | Plant response rating, Rice [20]: 0

CC(C)c1ccc(C2CNC(=O)C2C(=O)Nc2cccc(F)c2F)cc1 (centres unmarked) [Compound 470]
Plant response rating, Kochia [1]: 70 | Kochia plant response rating (0 to 100 scale, 0 is no effect, 100 is complete control) [1]: 40 | Plant response rating, Barnyardgrass [2]: 90 | Barnyardgrass plant response rating (0 to 100 scale, 0 is no effect, 100 is complete control) [2]: 90 | Plant response rating, Pigweed [3]: 0 | Pigweed plant response rating (0 to 100 scale, 0 is no effect, 100 is complete control) [3]: 20 | Plant response rating, Ragweed [4]: 0 | Plant response rating, Foxtail, Giant [5]: 90 | Foxtail, Giant plant response rating (0 to 100 scale, 0 is no effect, 100 is complete control) [5]: 90 | Plant response rating, Ryegrass, Italian [6]: 0 | Ryegrass, Italian plant response rating (0 to 100 scale, 0 is no effect, 100 is complete control) [6]: 30 | Wheat plant response rating [7]: 0 | Plant response rating, Wheat [7]: 0 | Kochia plant response rating [8]: 0 | Plant response rating, Kochia [8]: 0 | Barnyardgrass plant response rating [9]: 60 | Plant response rating, Barnyardgrass [9]: 70 | Pigweed plant response rating [10]: 0 | Plant response rating, Pigweed [10]: 0 | Ragweed plant response rating [11]: 0 | Plant response rating, Ragweed [11]: 0 | Blackgrass plant response rating [12]: 30 | Plant response rating, Blackgrass [12]: 50 | Galium plant response rating [13]: 0 | Plant response rating, Galium [13]: 0 | Foxtail, Giant plant response rating [14]: 40 | Plant response rating, Foxtail, Giant [14]: 80 | Ryegrass, Italian plant response rating [15]: 0 | Plant response rating, Ryegrass, Italian [15]: 20 | Corn plant response rating [16]: 0 | Plant response rating, Corn [16]: 0 | Plant response rating, Sedge, Umbrella [17]: 0 | Plant response rating, Barnyardgrass [18]: 0 | Plant response rating, Ducksalad [19]: 85 | Plant response rating, Rice [20]: 0

CN1CC(c2ccc(C(F)(F)F)cc2F)C(C(=O)Nc2cccc(F)c2F)C1=O (centres unmarked) [Compound 472]
Plant response rating, Kochia [1]: 80 | Kochia plant response rating (0 to 100 scale, 0 is no effect, 100 is complete control) [1]: 80 | Plant response rating, Barnyardgrass [2]: 90 | Barnyardgrass plant response rating (0 to 100 scale, 0 is no effect, 100 is complete control) [2]: 90 | Plant response rating, Pigweed [3]: 80 | Pigweed plant response rating (0 to 100 scale, 0 is no effect, 100 is complete control) [3]: 90 | Plant response rating, Ragweed [4]: 0 | Ragweed plant response rating (0 to 100 scale, 0 is no effect, 100 is complete control) [4]: 50 | Plant response rating, Foxtail, Giant [5]: 90 | Foxtail, Giant plant response rating (0 to 100 scale, 0 is no effect, 100 is complete control) [5]: 90 | Plant response rating, Ryegrass, Italian [6]: 50 | Ryegrass, Italian plant response rating (0 to 100 scale, 0 is no effect, 100 is complete control) [6]: 80 | Wheat plant response rating [7]: 30 | Plant response rating, Wheat [7]: 60 | Kochia plant response rating [8]: 60 | Plant response rating, Kochia [8]: 70 | Barnyardgrass plant response rating [9]: 90 | Plant response rating, Barnyardgrass [9]: 90 | Pigweed plant response rating [10]: 60 | Plant response rating, Pigweed [10]: 60 | Ragweed plant response rating [11]: 0 | Plant response rating, Ragweed [11]: 0 | Blackgrass plant response rating [12]: 30 | Plant response rating, Blackgrass [12]: 60 | Galium plant response rating [13]: 50 | Plant response rating, Galium [13]: 50 | Foxtail, Giant plant response rating [14]: 80 | Plant response rating, Foxtail, Giant [14]: 90 | Ryegrass, Italian plant response rating [15]: 40 | Plant response rating, Ryegrass, Italian [15]: 60 | Corn plant response rating [16]: 40 | Plant response rating, Corn [16]: 80 | Plant response rating, Sedge, Umbrella [17]: 0 | Plant response rating, Barnyardgrass [18]: 60 | Plant response rating, Ducksalad [19]: 75 | Plant response rating, Rice [20]: 20
